test system: CAL-120; assay: normalised response (% of control), CellTox Green; higher = less cell death (100 = DMSO, 0 = benzethonium chloride kill control); conditions: incubation time: 72 h
In short: (§1)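 Every value is a normalised signal taken at one concentration of a dilution series. Compound was placed in 384-well plates at 5 concentrations in 10-fold steps over a compound-specific 10,000-fold range, and 20 µl of breast cancer cell suspension was seeded onto it. After 72 h, CellTox Green fluorescence (485/520 nm) was measured first and CellTiter-Glo luminescence second, following 10 min at room temperature. Each plate was scaled to 0.1 % DMSO (100) and a positive kill control (0).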

Compared with `CCN(CC)CCCC(C)Nc1c2ccc(Cl)cc2nc2ccc(OC)cc12` (stereo not given) [Mepacrine] (5000 nM), `C=CC(=O)Nc1cc2c(Nc3ccc(F)c(Cl)c3)ncnc2cc1OCCCN1CCOCC1` [Canertinib] (1000 nM) is lower in normalised response: 101% for the first, 97.7% for the second.

Compared with `C[C@H]1C[C@@H]2[C@H]([C@@H](O)C[C@@]3(C)[C@H]2CC[C@]3(O)C(=O)CO)[C@@]2(C)C=CC(=O)C=C12` [Methylprednisolone] (1000 nM), `C=CC(=O)N1CCC[C@@H](n2nc(-c3ccc(Oc4ccccc4)cc3)c3c(N)ncnc32)C1` [Ibrutinib] (100 nM) is higher in normalised response: 101% for the first, 103% for the second.

Work on `CC[C@H](Nc1ncnc2[nH]cnc12)c1nc2cccc(F)c2c(=O)n1-c1ccccc1` [GS-1101] (1000 nM) yielded a normalised response of 96.9%.

test system: HCC1599; assay: as above; conditions: incubation time: 72 h
In short: as §1

Going from `Nc1nc(F)nc2c1ncn2[C@@H]1O[C@H](CO)[C@@H](O)[C@@H]1O` [Fludarabine] (1000 nM) to `CC[C@H](Nc1ncnc2[nH]cnc12)c1nc2cccc(F)c2c(=O)n1-c1ccccc1` [GS-1101] (1000 nM), the normalised response falls from 105% to 93.7%.

First: Nc1ccccc1NC(=O)c1ccc(CNC(=O)OCc2cccnc2)cc1 [Entinostat] (1000 nM)
Second: C=CC(=O)N1CCC[C@@H](n2nc(-c3ccc(Oc4ccccc4)cc3)c3c(N)ncnc32)C1 [Ibrutinib] (100 nM)
The normalised response of the first is lower: 90.1% for the first, 99.2% for the second.

Going from `CNC(=O)c1cc(Oc2ccc(NC(=O)Nc3cc(C(C)(C)C)nn3-c3ccc4ncccc4c3)c(F)c2)ccn1` [Rebastinib] (100 nM) to `Cc1ccc(-c2cc(C(F)(F)F)nn2-c2ccc(S(N)(=O)=O)cc2)cc1` [Celecoxib] (1000 nM), the normalised response falls from 99.2% to 99.1%.

First: CCN(CC)CCCC(C)Nc1c2ccc(Cl)cc2nc2ccc(OC)cc12 (stereo not given) [Mepacrine] (5000 nM)
Second: C=CC(=O)Nc1cc2c(Nc3ccc(F)c(Cl)c3)ncnc2cc1OCCCN1CCOCC1 [Canertinib] (1000 nM)
The normalised response of the first is lower: 98% for the first, 114% for the second.

Molecule `C[C@H]1C[C@@H]2[C@H]([C@@H](O)C[C@@]3(C)[C@H]2CC[C@]3(O)C(=O)CO)[C@@]2(C)C=CC(=O)C=C12` [Methylprednisolone] (1000 nM) has a normalised response of 109%.

test system: MDA-MB-468; assay: as above; conditions: incubation time: 72 h
In short: as §1

Compared with `Nc1nc(F)nc2c1ncn2[C@@H]1O[C@H](CO)[C@@H](O)[C@@H]1O` [Fludarabine] (1000 nM), `CC[C@H](Nc1ncnc2[nH]cnc12)c1nc2cccc(F)c2c(=O)n1-c1ccccc1` [GS-1101] (1000 nM) is lower in normalised response: 124% for the first, 88.1% for the second.

Compared with `Nc1ccccc1NC(=O)c1ccc(CNC(=O)OCc2cccnc2)cc1` [Entinostat] (1000 nM), `C=CC(=O)N1CCC[C@@H](n2nc(-c3ccc(Oc4ccccc4)cc3)c3c(N)ncnc32)C1` [Ibrutinib] (100 nM) is higher in normalised response: 65.9% for the first, 122% for the second.

First: CNC(=O)c1cc(Oc2ccc(NC(=O)Nc3cc(C(C)(C)C)nn3-c3ccc4ncccc4c3)c(F)c2)ccn1 [Rebastinib] (100 nM)
Second: Cc1ccc(-c2cc(C(F)(F)F)nn2-c2ccc(S(N)(=O)=O)cc2)cc1 [Celecoxib] (1000 nM)
The normalised response of the first is lower: 118% for the first, 121% for the second.

Compared with `CCN(CC)CCCC(C)Nc1c2ccc(Cl)cc2nc2ccc(OC)cc12` (stereo not given) [Mepacrine] (5000 nM), `C=CC(=O)Nc1cc2c(Nc3ccc(F)c(Cl)c3)ncnc2cc1OCCCN1CCOCC1` [Canertinib] (1000 nM) is higher in normalised response: 89.3% for the first, 140% for the second.

`C[C@H]1C[C@@H]2[C@H]([C@@H](O)C[C@@]3(C)[C@H]2CC[C@]3(O)C(=O)CO)[C@@]2(C)C=CC(=O)C=C12` [Methylprednisolone] (1000 nM) showed a normalised response of 109%.

test system: CAL-51; assay: as above; conditions: incubation time: 72 h
In short: as §1

First: Nc1nc(F)nc2c1ncn2[C@@H]1O[C@H](CO)[C@@H](O)[C@@H]1O [Fludarabine] (1000 nM)
Second: CC[C@H](Nc1ncnc2[nH]cnc12)c1nc2cccc(F)c2c(=O)n1-c1ccccc1 [GS-1101] (1000 nM)
The normalised response of the first is higher: 122% for the first, 88.6% for the second.

First: Nc1ccccc1NC(=O)c1ccc(CNC(=O)OCc2cccnc2)cc1 [Entinostat] (1000 nM)
Second: C=CC(=O)N1CCC[C@@H](n2nc(-c3ccc(Oc4ccccc4)cc3)c3c(N)ncnc32)C1 [Ibrutinib] (100 nM)
The normalised response of the first is lower: 70.2% for the first, 93.6% for the second.

Going from `CNC(=O)c1cc(Oc2ccc(NC(=O)Nc3cc(C(C)(C)C)nn3-c3ccc4ncccc4c3)c(F)c2)ccn1` [Rebastinib] (100 nM) to `Cc1ccc(-c2cc(C(F)(F)F)nn2-c2ccc(S(N)(=O)=O)cc2)cc1` [Celecoxib] (1000 nM), the normalised response rises from 105% to 117%.

Going from `CCN(CC)CCCC(C)Nc1c2ccc(Cl)cc2nc2ccc(OC)cc12` (stereo not given) [Mepacrine] (5000 nM) to `C=CC(=O)Nc1cc2c(Nc3ccc(F)c(Cl)c3)ncnc2cc1OCCCN1CCOCC1` [Canertinib] (1000 nM), the normalised response falls from 103% to 93.2%.

With `C[C@H]1C[C@@H]2[C@H]([C@@H](O)C[C@@]3(C)[C@H]2CC[C@]3(O)C(=O)CO)[C@@]2(C)C=CC(=O)C=C12` [Methylprednisolone] (1000 nM) the normalised response was 108%.

test system: MDA-MB-231; assay: as above; conditions: incubation time: 72 h
In short: as §1

First: Nc1nc(F)nc2c1ncn2[C@@H]1O[C@H](CO)[C@@H](O)[C@@H]1O [Fludarabine] (1000 nM)
Second: CC[C@H](Nc1ncnc2[nH]cnc12)c1nc2cccc(F)c2c(=O)n1-c1ccccc1 [GS-1101] (1000 nM)
The normalised response of the first is higher: 114% for the first, 84.2% for the second.

Compared with `Nc1ccccc1NC(=O)c1ccc(CNC(=O)OCc2cccnc2)cc1` [Entinostat] (1000 nM), `CNC(=O)c1cc(Oc2ccc(NC(=O)Nc3cc(C(C)(C)C)nn3-c3ccc4ncccc4c3)c(F)c2)ccn1` [Rebastinib] (100 nM) is lower in normalised response: 108% for the first, 90.2% for the second.

Compared with `Cc1ccc(-c2cc(C(F)(F)F)nn2-c2ccc(S(N)(=O)=O)cc2)cc1` [Celecoxib] (1000 nM), `CCN(CC)CCCC(C)Nc1c2ccc(Cl)cc2nc2ccc(OC)cc12` (stereo not given) [Mepacrine] (5000 nM) is lower in normalised response: 106% for the first, 81.8% for the second.

Compared with `C=CC(=O)Nc1cc2c(Nc3ccc(F)c(Cl)c3)ncnc2cc1OCCCN1CCOCC1` [Canertinib] (1000 nM), `C[C@H]1C[C@@H]2[C@H]([C@@H](O)C[C@@]3(C)[C@H]2CC[C@]3(O)C(=O)CO)[C@@]2(C)C=CC(=O)C=C12` [Methylprednisolone] (1000 nM) is higher in normalised response: 104% for the first, 142% for the second.
